From US20260103471A1, “CYCLIC UREA THIAZOLYL COMPOUNDS FOR TREATMENT OF HSV” (Assembly Biosciences, Inc., priority 2022, published 2026)
Like-named read-outs stand apart in the source and are kept apart here.

What was measured:
[1] = tested on: HSV-1; assay: HSV-1 Antiviral Assay (Vero cells, cell viability); assay type: cell-based; details: Human alphaherpesvirus 1, 96 h, Vero cells, read-out: HSV-1 EC50
Protocol: Vero cells were cultured in Dulbecco's Modified Eagle Medium (DMVEM) supplemented with […] and 100 units/mL penicillin and streptomycin. The cells were passaged 2-3 times per week to maintain sub-confluent densities.
Vero cells were seeded into 96-well plates at a density of 2.5×10^3 cells per well and allowed to attach overnight. Following attachment, the media was replaced with 50 μL of infection medium (DMVEM supplemented with 2% fetal bovine serum and 100 units/mL penicillin and streptomycin). A Tecan D300e digital dispenser was then used to add compounds to the culture using an 8-point 3-fold serial dilution format. The DMSO concentration was normalized to 0.5% for all treatments. Following compound addition, 50 μL of infection medium containing 80 TCID50 HSV-1 was added to the cells and incubated at 37° C. for 4 days. After the incubation, the plates were equilibrated to room temperature, the media was removed, and […] a 1:1 dilution of Cell titer glow and phosphate buffered saline was added to the cells. Following a 5-minute incubation, cell viability was quantified by measuring luminance using a Tecan Infinite M1000 Pro plate reader.

[2] = tested on: HSV-2 G strain; assay: HSV-2 Antiviral Assay (Vero cells, cell viability); assay type: cell-based; details: for EC50: Human alphaherpesvirus 2, Vero, 120 h, Vero cells, 5 days
In short: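 Vero cells (1.0×10^4/well, attached overnight) given 8-point 3-fold compound dilutions (0.5% DMSO) then infected with 160 TCID50 HSV-2 G strain in 2% FBS medium for 5 days at 37 °C. Protection read as cell viability by WST-8 absorbance at 460 and 620 nm after 3 h.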

[3] = 80 TCID50 HSV-1, 4 days, cell viability
[4] = 160 TCID50 HSV-2 G strain, cell viability

SMILES	EC50 [1, 3] [nM]	EC50 [2, 4] [nM]	EC50 ([1]; 4 days) [nM]	EC50 [2] [nM]	fold more active than Example 314 (5-membered ring analog) ([2]; ratio of EC50 vs Example 314, assay not stated, HSV-2 values only) [fold]
Cc1nc(N2CCCN(c3ccc(-c4cccc5c4CC(=O)N5C)cc3)C2=O)sc1S(N)(=O)=O [Compound 77]	100 to 1000	100 to 1000	–	–	–
CNS(=O)(=O)c1sc(N2CCCCN(c3ccc(-c4ccccn4)cc3)C2=O)nc1C [Compound 138]	< 100	< 100	–	–	–
CNS(=O)(=O)c1sc(N2CCCN(c3ccc(-c4ccccc4F)cc3)C2=O)nc1C [Compound 120]	< 100	< 100	–	–	–
Cc1nc(N2CCCN(c3ccc(-c4ccccc4C(F)F)cc3)C2=O)sc1S(N)(=O)=O [Compound 12]	< 100	< 100	–	–	–
Cc1nc(N2CCCN(c3cccc(-c4cc(F)ccc4F)c3)C2=O)sc1S(N)(=O)=O [Compound 16]	100 to 1000	100 to 1000	–	–	–
Cc1nc2cccc(-c3ccc(N4CCCN(c5nc(C)c(S(N)(=O)=O)s5)C4=O)cc3)c2s1 [Compound 68]	< 100	< 100	–	–	–
Cc1nc(N2CCCN(c3ccc(-c4cccc5cn[nH]c45)cc3)C2=O)sc1S(N)(=O)=O [Compound 54]	100 to 1000	100 to 1000	–	–	–
CNc1cccc(-c2ccc(N3CCCN(c4nc(C)c(S(=O)(=O)NC)s4)C3=O)cc2)n1 [Compound 124]	< 100	< 100	–	–	–
CNS(=O)(=O)c1sc(N2CCCN(c3ccc(-c4nccs4)cc3)C2=O)nc1C [Compound 126]	< 100	< 100	–	–	–
CNS(=O)(=O)c1sc(N2CCCN(c3ccc(-c4ccccc4F)cc3F)C2=O)nc1C [Compound 130]	< 100	< 100	–	–	–
Cc1nc(N2CCCN(c3ccc(-c4cc(Br)ccc4F)cc3)C2=O)sc1S(N)(=O)=O [Compound 25]	< 100	< 100	–	–	–
Cc1nc(N2CCCN(c3ccc(-c4nc5ncccc5s4)cc3)C2=O)sc1S(N)(=O)=O [Compound 89]	1000 to 5000	1000 to 5000	–	–	–
Cc1nc(N2CCCCN(c3ccc(-c4ccccn4)cc3)C2=O)sc1S(N)(=O)=O [Compound 103]	< 100	< 100	–	–	–
C#Cc1ccc(F)c(-c2ccc(N3CCCN(c4nc(C)c(S(N)(=O)=O)s4)C3=O)cc2)c1 [Compound 17, 2-(3-(5′-Ethynyl-2′-fluoro-[1,1′-biphenyl]-4-yl)-2-oxotetrahydropyrimidin-1(2H)-yl)-4-methylthiazole-5-sulfonamide]	< 100	< 100	–	–	–
Cc1nc(N2CCCN(c3ccc(-c4nccs4)cc3)C2=O)sc1S(N)(=O)=O [Compound 42, 4-Methyl-2-(2-oxo-3-(4-(thiazol-2-yl)phenyl)tetrahydropyrimidin-1(2H)-yl) thiazole-5-sulfonamide]	< 100	< 100	–	–	–
Cc1nc(N2CCCN(c3cc(F)c(-c4ccccc4)cc3F)C2=O)sc1S(N)(=O)=O [Compound 99, 2-(3-(2,5-Difluoro-[1,1′-biphenyl]-4-yl)-2-oxotetrahydropyrimidin-1(2H)-yl)-4-methylthiazole-5-sulfonamide]	< 100	< 100	–	–	–
CNS(=O)(=O)c1sc(N2CCCN(c3ccc(-c4ccccn4)c(F)c3)C2=O)nc1C [Compound 128]	< 100	< 100	–	–	–
Cc1nc(N2CCCN(c3ccc(-c4ccncc4)cc3)C2=O)sc1S(N)(=O)=O [Compound 3]	100 to 1000	100 to 1000	–	–	–
Cc1nc(N2CCCN(c3cc(F)c(-c4ccccn4)cc3F)C2=O)sc1S(N)(=O)=O [Compound 98]	< 100	< 100	–	–	–
Cc1nc(N2CCCN(c3ccc(-c4ccc5c(cnn5C)c4)cc3)C2=O)sc1S(N)(=O)=O [Compound 52]	1000 to 5000	1000 to 5000	–	–	–
Cc1nc(N2CCCN(c3ccc(-c4ccc5ncn(C)c5c4)cc3)C2=O)sc1S(N)(=O)=O [Compound 75]	1000 to 5000	1000 to 5000	–	–	–
Cc1nc(N2CCCN(c3ccc(-c4nc5ccccc5s4)cc3)C2=O)sc1S(N)(=O)=O [Compound 88]	100 to 1000	1000 to 5000	–	–	–
Cc1nc(N2CCCN(c3ccc(-c4ccccc4F)cc3F)C2=O)sc1S(=O)(=O)NC1CC1 [Compound 131]	100 to 1000	100 to 1000	–	–	–
Cc1nc(N2CCCN(c3ccc(-c4cccc5c4cnn5CC(C)(C)O)cc3)C2=O)sc1S(N)(=O)=O [Compound 60]	1000 to 5000	1000 to 5000	–	–	–
Cc1nc(N2CCCN(c3ccc(-c4cccc(F)c4F)cc3)C2=O)sc1S(N)(=O)=O [Compound 6]	< 100	< 100	–	–	–
Cc1nc(N2CCCN(c3ccc(-c4cccc5[nH]c(=O)sc45)cc3)C2=O)sc1S(N)(=O)=O [Compound 78]	100 to 1000	100 to 1000	–	–	–
Cc1nc(N2CCCN(c3ccc(-c4ncc(C(F)(F)F)s4)cc3)C2=O)sc1S(N)(=O)=O [Compound 45]	1000 to 5000	1000 to 5000	–	–	–

Now from value to compound, other results behind:

EC50 [1, 3] [nM]	EC50 [2, 4] [nM]	EC50 ([1]; 4 days) [nM]	EC50 [2] [nM]	SMILES	fold more active than Example 314 (5-membered ring analog) ([2]; ratio of EC50 vs Example 314, assay not stated, HSV-2 values only) [fold]
< 100	< 100	–	–	Cc1nc(N2CCCN(c3ccc(-c4cc(F)cc(F)n4)cc3)C2=O)sc1S(N)(=O)=O [Compound 235, 2-(3-(4-(4,6-difluoropyridin-2-yl)phenyl)-2-oxotetrahydropyrimidin-1(2H)-yl)-4-methylthiazole-5-sulfonamide]	–
1000 to 5000	1000 to 5000	–	–	Cc1nc(N2CCCN([C@H](C)c3cccc(-c4cc(F)ccc4F)c3)C2=O)sc1S(N)(=O)=O (single isomer, unassigned) [Compound 176]	–
< 100	< 100	–	–	Cc1nc(N2CCCN(c3ccc(-c4ccccc4F)cc3)C2=O)sc1S(C)(=O)=O [Compound 164]	–
< 100	< 100	–	–	Cc1nc(N2C[C@@H](C)CN(c3ccc(-c4ccccc4Cl)cc3)C2=O)sc1S(N)(=O)=O (single isomer, unassigned) [Compound 323]	–
< 100	< 100	–	–	Cc1nc(N2CCCN(c3ccc(-c4cc(F)ccc4Cl)cc3)C2=O)sc1S(N)(=O)=O [Compound 193]	–
1000 to 5000	1000 to 5000	–	–	Cc1nc(N2CCCN([C@@H](C)c3cccc(-c4cc(F)ccc4F)c3)C2=O)sc1S(N)(=O)=O (single isomer, unassigned) [Compound 175]	–
< 100	< 100	–	–	Cc1nc(N2CCCN(c3ccc(-c4cc(F)ccc4F)cc3)C2=O)sc1S(=O)(=O)NCCCO [Compound 417]	–
100 to 1000	100 to 1000	–	–	O=C1N(c2ccc(-c3cc(F)ccc3F)cc2)CCCN1c1ncc(S(=O)(=O)C2CC2)s1 [Compound 166]	–
–	–	10	7	Cc1nc(N2CCCN(c3ccc(-c4cc(F)cc5nsnc45)cc3)C2=O)sc1S(N)(=O)=O [Example 259]	4
< 100	< 100	–	–	Cc1nc(N2CCCN(c3ccc(-c4cc(F)ccc4F)cc3)C2=O)sc1[S@](C)(=N)=O (single isomer, unassigned) [Compound 141]	–
< 100	< 100	–	–	Cc1nc(N2C[C@H](C)CN(c3ccc(-c4ccccc4Cl)cc3)C2=O)sc1S(N)(=O)=O (single isomer, unassigned) [Compound 322]	–
< 100	< 100	–	–	Cc1nc(N2CC3(COC3)CN(c3ccc(-c4cc(F)ccc4F)cc3)C2=O)sc1S(N)(=O)=O [Compound 339, 2-(8-(2′,5′-difluoro-[1,1′-biphenyl]-4-yl)-7-oxo-2-oxa-6,8-diazaspiro[3.5]nonan-6-yl)-4-methylthiazole-5-sulfonamide]	–
< 100	< 100	–	–	Cc1nc(N2CCCN(Cc3cccc(-c4cc(F)ccc4F)c3)C2=O)sc1S(N)(=O)=O [Compound 172, 2-(3-((2′,5′-Difluoro-[1,1′-biphenyl]-3-yl)methyl)-2-oxotetrahydropyrimidin-1(2H)-yl)-4-methylthiazole-5-sulfonamide]	–
< 100	< 100	–	–	Cc1nc(N2CCCN(c3ccc(-c4cc(F)cc5c4ccn5C)cc3)C2=O)sc1S(N)(=O)=O [Compound 251]	–
< 100	< 100	–	–	Cc1nc(N2CCCN(c3ccc(-c4cc(F)ccc4C(F)F)cc3)C2=O)sc1S(N)(=O)=O [Compound 194]	–
< 100	< 100	–	–	Cc1nc(N2CCCN(c3ccc(-c4nsc5ccccc45)cc3)C2=O)sc1S(N)(=O)=O [Compound 310]	–
< 100	< 100	–	–	Cc1nc(N2CC(C(C)(C)F)CN(c3ccc(-c4cc(F)ccc4F)cc3)C2=O)sc1S(N)(=O)=O (stereo not shown) [Compound 369]	–
< 100	< 100	–	–	Cc1nc(N2CCCN(c3ccc(-c4cc(F)cc5nnsc45)cc3)C2=O)sc1S(N)(=O)=O [Compound 243]	–
100 to 1000	< 100	–	–	Cc1nc(N2CC3(CC3)CN(c3ccc(-c4cc(F)ccc4F)cc3)C2=O)sc1[S@@](C)(=N)=O (single isomer, unassigned) [Compound 157]	–
< 100	< 100	–	–	Cc1nc(N2CC3(COC3)CN(c3ccc(-c4cc(F)cc(-c5cnn(C(F)F)c5)c4F)cc3)C2=O)sc1S(C)(=O)=O [Compound 434]	–
< 100	< 100	–	–	Cc1nc(N2C[C@H](C(C)(C)O)CN(c3ccc(-c4cc(F)ccc4F)cc3)C2=O)sc1S(N)(=O)=O (single isomer, unassigned) [Compound 343]	–
